Data set [1] is described as follows: Aqueous solubility in PBS, pH 7.4. The format is physicochemical. The settings on record: phosphate buffered saline, pH 7.4, aqueous buffer, thermodynamic from solid, pH 7.4 phosphate buffered saline, 24 hours, amorphous or crystalline material; read-out: Aqu. Solubility. As for the experimental part:
Aqueous solubility of the compounds was determined by suspending excess solid (typically 0.3-0.5 mg) in PBS, pH 7.4, at a concentration of 0.5 mg/mL. The suspension was vortexed for 10-30 seconds to wet the material and stirred at 600 rpm for 24 hours. For analysis by UPLC, 150 μL aliquot sample was transferred into a […] PVDF spin filter and centrifuged at 14,000 rpm for 5 minutes. 100 μL of the filtrate was diluted with 100 μL 1:1 Acetonitrile (ACN):H2O. The resultant samples were analyzed using UPLC and quantified against a standard curve of the compound of interest dissolved in 1:1 ACN:H2O. The retains of the solids were checked by XRPD and PLM to determine if the phase of the material was crystalline or amorphous.

Data set [2] relates to HIV-1 wild-type (R8) virus. Briefly: Viral KINetics in Green cells (VIKING) assay, HIV-1 replication in MT4-GFP reporter cells. The format is cell-based. The settings on record: Human immunodeficiency virus 1, 10% normal human serum, MT4-GFP cells, HIV-1 wild-type (R8); read-out: Viking (10% NHS), IC50. Summed up:
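MT4-GFP cells infected overnight with HIV-1 R8 at MOI ~0.01, then added to compound plates in RPMI with 10% normal human serum; 10-point 3-fold dilutions (typically 4 μM-0.2 nM). Green cells counted at ~48 h and 72 h; reproductive ratio (72 h/48 h) gave % inhibition, IC50 by 4-parameter fit.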

15 compounds from patent US20240287124A1, “PRODRUGS OF 4'-SUBSTITUTED NUCLEOSIDE REVERSE TRANSCRIPTASE INHIBITORS” (Merck Sharp & Dohme LLC, priority 2023, published 2024) can be followed below.

Structures are written as SMILES. Values after ≈ are worked out from the molar mass of the structure shown. Some results are limits rather than exact numbers.

`C#C[C@]1(CO)O[C@@H](n2ccc3c(NC(=O)CCCC)nc(Cl)nc32)C[C@@H]1O` [Example 22, N-(2-chloro-7-((2R,4S,5R)-5-ethynyl-4-hydroxy-5-(hydroxymethyl)tetrahydrofuran-2-yl)-7H-pyrrolo[2,3-d]pyrimidin-4-yl)pentanamide]: the solubility at 24 h in data set [1] is 362 µg/mL (≈ 921 µM). In addition, the IC50 in data set [2] came out at 199 nM.

For the compound `C#C[C@]1(COC(=O)OCc2ccn(C)c(=O)c2)O[C@@H](n2ccc3c(N)nc(Cl)nc32)C[C@@H]1OC(=O)OCc1ccn(C)c(=O)c1` [Example 226], the solubility at 24 h in data set [1] is 19 µg/mL (≈ 29.7 µM). Further, the IC50 in data set [2] turned out to be 13 nM.

For `C#C[C@]1(COC(=O)Cc2ccc(Cl)cc2)O[C@@H](n2ccc3c(N)nc(Cl)nc32)C[C@@H]1OC(=O)Cc1ccc(Cl)cc1` [Example 34, (2R,3S,5R)-5-(4-amino-2-chloro-7H-pyrrolo[2,3-d]pyrimidin-7-yl)-2-((2-(4-chlorophenyl)acetoxy)methyl)-2-ethynyltetrahydrofuran-3-yl 2-(4-chlorophenyl)acetate], the solubility at 24 h in data set [1] is less than 1 µg/mL. Also, in data set [2], the IC50 was 6.1 nM.

For `C#C[C@]1(CO)O[C@@H](n2ccc3c(N)nc(Cl)nc32)C[C@@H]1OC(=O)OC(CC)CC` [Example 84], the solubility at 24 h in data set [1] came out at 69 µg/mL (≈ 163 µM). Moreover, the IC50 in data set [2] was 129 nM.

Take `C#C[C@]1(COC(=O)OCc2ccccc2)O[C@@H](n2ccc3c(N)nc(Cl)nc32)C[C@@H]1OC(=O)CCCCC` [Example 210]: in data set [1], the solubility at 24 h was less than 1 µg/mL. Besides, the IC50 in data set [2] was 2.9 nM.

For the compound `C#C[C@]1(COC(=O)[C@H](C)c2ccccc2)O[C@@H](n2ccc3c(N)nc(Cl)nc32)C[C@@H]1O` [Example 100], in data set [1], the solubility at 24 h was determined as 72 µg/mL (≈ 163 µM). In data set [2], the IC50 turned out to be 2.5 nM.

`C#C[C@]1(COC(=O)OCc2ccccc2)O[C@@H](n2ccc3c(N)nc(Cl)nc32)C[C@@H]1OC(=O)OCc1cccnc1` [Example 174]: in data set [1], the solubility at 24 h is less than 1 µg/mL. Further, the IC50 in data set [2] was found to be 13 nM.

As to `C#C[C@]1(COCOC(=O)CCCCCCCCC)O[C@@H](n2ccc3c(N)nc(Cl)nc32)C[C@@H]1O` [Example 136], the solubility at 24 h in data set [1] is less than 1 µg/mL. Also, the IC50 in data set [2] amounted to 3.2 nM.

`C#C[C@]1(CO)O[C@@H](n2ccc3c(N)nc(Cl)nc32)C[C@@H]1OC(=O)OCCc1ccccc1` [Example 64, (2R,3S,5R)-5-(4-amino-2-chloro-7H-pyrrolo[2,3-d]pyrimidin-7-yl)-2-ethynyl-2-(hydroxymethyl)tetrahydrofuran-3-yl phenethyl carbonate]: the solubility at 24 h in data set [1] was less than 1 µg/mL. Also, in data set [2], the IC50 was determined as 4.6 nM.

Turning to `C#C[C@]1(COCOC(=O)c2ccccc2)O[C@@H](n2ccc3c(N)nc(Cl)nc32)C[C@@H]1O` [Example 51], in data set [1], the solubility at 24 h was found to be 309 µg/mL (≈ 698 µM). For the same compound, the IC50 in data set [2] was 2.2 nM.

Turning to `C#C[C@]1(CO)O[C@@H](n2ccc3c(N)nc(Cl)nc32)C[C@@H]1OC(=O)OCCOC(C)=O` [Example 156], the solubility at 24 h in data set [1] turned out to be 66 µg/mL (≈ 150 µM). The IC50 in data set [2] came to 3.2 nM.

For `C#C[C@]1(CO)O[C@@H](n2ccc3c(N)nc(Cl)nc32)C[C@@H]1OC(=O)OCCC` [Example 80], the solubility at 24 h in data set [1] came to 305 µg/mL (≈ 773 µM). For the same compound, the IC50 in data set [2] was found to be 10 nM.

Turning to `C#C[C@]1(COC(=O)OCc2ccccc2)O[C@@H](n2ccc3c(N)nc(Cl)nc32)C[C@@H]1OC(C)=O` [Example 193], the solubility at 24 h in data set [1] came out at 1.2 µg/mL (≈ 2.47 µM). Besides, the IC50 in data set [2] was 29 nM.

On to `C#C[C@]1(COC(=O)CCCCCCCCCCCCC)O[C@@H](n2ccc3c(N)nc(Cl)nc32)C[C@@H]1O` [Example 87], for which the solubility at 24 h in data set [1] was less than 1 µg/mL. Further, the IC50 in data set [2] stood at 3.8 nM.

As for `C#C[C@]1(CO)O[C@@H](n2ccc3c(N)nc(Cl)nc32)C[C@@H]1OC(=O)OCCCCCCCC` [Example 79], the solubility at 24 h in data set [1] was less than 1 µg/mL. In data set [2], the IC50 turned out to be 4.3 nM.
